Assay results: patent US10647713B2 (Nimbus Lakshmi, Inc., priority 2016, dated 2020)

target: human TYK2 (JH2domain-pseudokinase) (Homo sapiens (Human), UniProt P29597); assay: TYK2 JH2 Domain Binding Assay (KINOMEscan, DiscoveRx); settings: 11-point dilution, duplicate
Summary of the method: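 TYK2 JH2 (G556–D888)–NFkB DBD fusion, DNA-tagged, from HEK293 extracts (<0.1 nM) competed against immobilised biotinylated ligand for 1 h at room temperature, 0.9% DMSO. Bead-retained kinase quantified by qPCR; Kd from 11-point 3-fold series (top 30,000 nM, duplicate), Hill fit with slope −1.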

Chain of human TYK2 (JH2domain-pseudokinase) (P29597 556-888): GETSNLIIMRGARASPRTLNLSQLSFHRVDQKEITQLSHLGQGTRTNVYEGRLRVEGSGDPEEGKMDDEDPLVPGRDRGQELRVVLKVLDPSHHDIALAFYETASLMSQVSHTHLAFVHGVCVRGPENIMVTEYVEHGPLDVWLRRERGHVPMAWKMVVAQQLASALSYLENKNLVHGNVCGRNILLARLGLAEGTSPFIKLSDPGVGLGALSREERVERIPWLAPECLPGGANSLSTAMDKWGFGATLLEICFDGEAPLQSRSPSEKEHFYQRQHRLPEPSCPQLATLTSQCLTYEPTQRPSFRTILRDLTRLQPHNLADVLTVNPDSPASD

Row | Compound | Kd
1 | CS(=O)(=O)c1cc(C2CC2)ccc1Nc1cc(Nc2cc3n(n2)CCCCC3)nc2[nH]c(C(F)F)nc12 [I-409, N7-(4-cyclopropyl-2-(methylsulfonyl)phenyl)-2-(difluoromethyl)-N5-(5,6,7,8-tetrahydro-4H-pyrazolo[1,5-a]azepin-2-yl)-3H-imidazo[4,5-b]pyridine-5,7-diamine] | 0.1 to 0.5 nM
2 | Cc1nc2c(Nc3ccc(C4CC4)cc3S(C)(=O)=O)cc(Nc3cc4n(n3)CCCCC4)nc2[nH]1 [I-410, N7-(4-cyclopropyl-2-(methylsulfonyl)phenyl)-2-methyl-N5-(5,6,7,8-tetrahydro-4H-pyrazolo[1,5-a]azepin-2-yl)-3H-imidazo[4,5-b]pyridine-5,7-diamine] | 0.1 to 0.5 nM
3 | Cc1nc2c(Nc3ccc(C4CCC4)cc3S(C)(=O)=O)cc(NC(=O)[C@@H]3CC3(F)F)nc2[nH]1 [I-411, (S)—N-(7-((4-cyclobutyl-2-(methylsulfonyl)phenyl)amino)-2-methyl-3H-imidazo[4,5-b]pyridin-5-yl)-2,2-difluorocyclopropane-1-carboxamide] | 1 to 10 nM
4 | Cc1nc2c(Nc3ccc(C4CCC4)cc3S(C)(=O)=O)cc(NC(=O)[C@H]3CC3(F)F)nc2[nH]1 [I-412, (R)—N-(7-((4-cyclobutyl-2-(methylsulfonyl)phenyl)amino)-2-methyl-3H-imidazo[4,5-b]pyridin-5-yl)-2,2-difluorocyclopropane-1-carboxamide] | > 10 nM
5 | Cc1nc2c(Nc3ccc(C4CCC4)cc3S(C)(=O)=O)cc(NC(=O)[C@H]3C[C@H]3F)nc2[nH]1 [I-413, (1R,2R)—N-(7-((4-cyclobutyl-2-(methylsulfonyl)phenyl)amino)-2-methyl-3H-imidazo[4,5-b]pyridin-5-yl)-2-fluorocyclopropane-1-carboxamide] | 0.5 to 1 nM
6 | Cc1nc2c(Nc3ccc(C4CCC4)cc3S(C)(=O)=O)cc(NC(=O)[C@@H]3C[C@@H]3F)nc2[nH]1 [I-414, (1S,2S)—N-(7-((4-cyclobutyl-2-(methylsulfonyl)phenyl)amino)-2-methyl-3H-imidazo[4,5-b]pyridin-5-yl)-2-fluorocyclopropane-1-carboxamide] | 0.1 to 0.5 nM
7 | Cc1nc(-c2ccc(Nc3cc(NC(=O)C4CC4)nc4[nH]c(C(F)F)nc34)c(S(C)(=O)=O)c2)sc1C [I-415, N-(2-(difluoromethyl)-7-((4-(4,5-dimethylthiazol-2-yl)-2-(methylsulfonyl)phenyl)amino)-3H-imidazo[4,5-b]pyridin-5-yl)cyclopropanecarboxamide] | 1 to 10 nM
8 | Cc1cc(Nc2cc(Nc3ccc(C4CC4)cc3S(C)(=O)=O)c3nc(C(F)F)[nH]c3n2)nc(C)n1 [I-416, N7-(4-cyclopropyl-2-(methylsulfonyl)phenyl)-2-(difluoromethyl)-N5-(2,6-dimethylpyrimidin-4-yl)-3H-imidazo[4,5-b]pyridine-5,7-diamine] | 0.1 to 0.5 nM
9 | Cc1ncc(Nc2cc(Nc3ccc(C4CC4)cc3S(C)(=O)=O)c3nc(C(F)F)[nH]c3n2)nc1C [I-417, N7-(4-cyclopropyl-2-(methylsulfonyl)phenyl)-2-(difluoromethyl)-N5-(5,6-dimethylpyrazin-2-yl)-3H-imidazo[4,5-b]pyridine-5,7-diamine] | 1 to 10 nM
10 | Cc1ccc(-c2ccc(Nc3cc(NC(=O)C4CC4)nc4[nH]c(C(F)F)nc34)c(S(C)(=O)=O)c2)o1 [I-418, N-(2-(difluoromethyl)-7-((4-(5-methylfuran-2-yl)-2-(methylsulfonyl)phenyl)amino)-3H-imidazo[4,5-b]pyridin-5-yl)cyclopropanecarboxamide] | 1 to 10 nM
11 | Cc1nc2c(Nc3ccc(-c4ccc(C)o4)cc3S(C)(=O)=O)cc(NC(=O)C3CC3)nc2[nH]1 [I-419, N-(2-methyl-7-((4-(5-methylfuran-2-yl)-2-(methylsulfonyl)phenyl)amino)-3H-imidazo[4,5-b]pyridin-5-yl)cyclopropanecarboxamide] | 0.1 to 0.5 nM
12 | Cc1cc(-c2ccc(Nc3cc(NC(=O)C4CC4)nc4[nH]c(C(F)F)nc34)c(S(C)(=O)=O)c2)oc1C [I-420, N-(2-(difluoromethyl)-7-((4-(4,5-dimethylfuran-2-yl)-2-(methylsulfonyl)phenyl)amino)-3H-imidazo[4,5-b]pyridin-5-yl)cyclopropanecarboxamide] | 1 to 10 nM
13 | Cc1nc2c(Nc3ccc(-c4cc(C)c(C)o4)cc3S(C)(=O)=O)cc(NC(=O)C3CC3)nc2[nH]1 [I-421, N-(7-((4-(4,5-dimethylfuran-2-yl)-2-(methylsulfonyl)phenyl)amino)-2-methyl-3H-imidazo[4,5-b]pyridin-5-yl)cyclopropanecarboxamide] | 0.1 to 0.5 nM
14 | Cc1nc2c(Nc3ccc([C@H]4CCCO4)cc3S(C)(=O)=O)cc(NC(=O)[C@@H]3CC3(F)F)nc2[nH]1 [I-422, (S)-2,2-difluoro-N-(2-methyl-7-((2-(methylsulfonyl)-4-((R)-tetrahydrofuran-2-yl)phenyl)amino)-3H-imidazo[4,5-b]pyridin-5-yl)cyclopropane-1-carboxamide] | 0.5 to 1 nM
15 | Cc1nc2c(Nc3ccc([C@H]4CCCO4)cc3S(C)(=O)=O)cc(NC(=O)[C@H]3CC3(F)F)nc2[nH]1 [I-423, (R)-2,2-difluoro-N-(2-methyl-7-((2-(methylsulfonyl)-4-((R)-tetrahydrofuran-2-yl)phenyl)amino)-3H-imidazo[4,5-b]pyridin-5-yl)cyclopropane-1-carboxamide] | 1 to 10 nM
16 | CS(=O)(=O)c1cc([C@@H]2CCCO2)ccc1Nc1cc(NC(=O)C2CC2)nc2[nH]c(C(F)F)nc12 [I-424, (S)—N-(2-(difluoromethyl)-7-((2-(methylsulfonyl)-4-(tetrahydrofuran-2-yl)phenyl)amino)-3H-imidazo[4,5-b]pyridin-5-yl)cyclopropanecarboxamide] | < 0.1 nM
17 | CS(=O)(=O)c1cc([C@H]2CCCO2)ccc1Nc1cc(NC(=O)C2CC2)nc2[nH]c(C(F)F)nc12 [I-425, (R)—N-(2-(difluoromethyl)-7-((2-(methylsulfonyl)-4-(tetrahydrofuran-2-yl)phenyl)amino)-3H-imidazo[4,5-b]pyridin-5-yl)cyclopropanecarboxamide] | 0.1 to 0.5 nM
18 | Cc1nc2c(Nc3ccc([C@@H]4CCCO4)cc3S(C)(=O)=O)cc(NC(=O)[C@@H]3CC3(F)F)nc2[nH]1 [I-426, (S)-2,2-difluoro-N-(2-methyl-7-((2-(methylsulfonyl)-4-((S)-tetrahydrofuran-2-yl)phenyl)amino)-3H-imidazo[4,5-b]pyridin-5-yl)cyclopropane-1-carboxamide] | 0.1 to 0.5 nM
19 | Cc1nc2c(Nc3ccc([C@@H]4CCCO4)cc3S(C)(=O)=O)cc(NC(=O)[C@H]3CC3(F)F)nc2[nH]1 [I-427, (R)-2,2-difluoro-N-(2-methyl-7-((2-(methylsulfonyl)-4-((S)-tetrahydrofuran-2-yl)phenyl)amino)-3H-imidazo[4,5-b]pyridin-5-yl)cyclopropane-1-carboxamide] | 0.1 to 0.5 nM
20 | CC1(C)COC(c2ccc(Nc3cc(NC(=O)[C@@H]4C[C@@H]4F)nc4[nH]c(C(F)F)nc34)c(S(C)(=O)=O)c2)=N1 [I-428, (1S,2S)—N-(2-(difluoromethyl)-7-((4-(4,4-dimethyl-4,5-dihydrooxazol-2-yl)-2-(methylsulfonyl)phenyl)amino)-3H-imidazo[4,5-b]pyridin-5-yl)-2-fluorocyclopropane-1-carboxamide] | 1 to 10 nM
